Results on four compounds are retold here after patent US20230181543A1, “TREATMENT OF CARM1-OVEREXPRESSING AND/OR ARID1A MUTANT CANCERS WITH IRE-1/XBP-1 INHIBITORS” (The Wistar Institute of Anatomy and Biology, priority 2020, published 2023).

“Also recorded” adds a separate entry of the source.

In one assay the test system is UPK10 cells. Nature of the assay: Orthotopic UPK10 xenograft, B-I09 with PD-1 immune therapy. The assay is classed as in vivo, B6 Mice. The conditions noted are these: B-I09 50 mg per kg, 5 weekdays per week i.p., with PD-1 10 mg per kg twice per week. The protocol:
(FIG. 19A) Western blotting of CARM1 and loading control […]-actin in UPK10, […] and OVCAR3 cells. (FIG. 19B) Schematic of experimental design for orthotopic injection UPK10 xenograft was shown. B6 Mice with indicated orthotopic injection of UPK10 cells were randomized into four different treatment groups and treated with control vehicle, B-[…] (50 mg per kg, 5 weekdays per week by i.p.), PD-1 (10 mg per kg, twice per week) or a combination. (FIG. 19C) Tumor weight was measured as a representation for tumor burden at the end of the treatment. coefficient of drug interaction (CDI) was calculated. (FIG. 19D) Tumor infiltrated lymphocytes (TILs) was analyzed by flow cytometry. The percentage of CD4^+ T cell, CD8^+ T cell, B cell in […] cell and macrophage were shown.

Assay [1] in a line: B-I09 treatment with CD8 depletion. The conditions noted are these: FIG. 44. It counts as in vivo.
The test system of another assay is XBP-1. To be noted: B-I09 20 μM, 48 h (FIG. 3A). An excerpt: (FIG. 3B) Dose response curve of B-I09 in wild-type and CARM1 knockout A1847 cells. (FIG. 3C) The expression of CARM1 in different HGSOC cell lines. (FIG. 3D) The IC50 of B-I09 in CARM1-low and high HGSOC cells.
Next, the inventors investigated whether the activated IRE-1-XBP-1 pathway is required for the survival of CARM1-high parental cells. […] To investigate whether the IRE-1-XBP-1 inhibition suppresses CARM1-high cells through inducing cell death, western blotting of apoptotic markers was performed. […] Therefore, to investigate whether lipid biosynthesis affects the selectivity of CARM1-high cells to inhibit the XBP-1 pathway, cells are treated with B-I09 to inhibit the XBP-1 pathway and rescued with control BSA or oleic acid (OA) (FIG. 4B), which is the upstream product for lipid biosynthesis (Yao et al., 2017).

Assay [2] relates to A1847 cells with or without CARM1 knockout. Put plainly: Western blotting of apoptotic markers (cleaved PARP, cleaved lamin A). The assay is classed as cell-based. The conditions noted are these: CARM1-high parental vs CARM1 knockout cells, B-I09 treatment. An excerpt:
(§1) FIGS. 4A-C. […] (FIG. 4A) Western blotting of apoptotic markers in A1847 cells with or without CARM1 knockout treated with or without B-I09. (FIGS. 4B-C) Schematics (FIG. 4B) and dose response curves (FIG. 4C) of A1847 cells with or without CARM1 knockout treated with B-I09 and rescued with BSA or oleic acid (OA).
FIGS. 15A-F. IRE-1a-XBP-1 pathway is required for CARM1-expressing OvCa. (FIG. 15A) Colony formation assays of wildtype and CARM1 knockout A 1847 and PEO4 cells treated with IRE-1α inhibitor B-I09 or 4μ8c. […] (FIG. 15C) Western blotting of apoptotic markers cleaved PARP and cleaved Lamin A and loading control β-actin. […] (FIG. 15D) The CARM1 levels in a panel of High Grade Serous Ovarian Cancer (HGSOC) cell lines were examined by western blotting. CARM1 is highly expressed in PEO4, OSAHO and A1847 cell lines. (FIG. 15E) Survival curves of colony formation assays of the panel of HGSOC cell lines treated with B-I09. (FIG. 15F) Comparison of IC50 of CARM1-high and CARM1-low HGSOC cell lines under treatment of B-I09.
(Immunoblotting shows a protein as a band on a membrane.)

Another assay concerns A1847 cells. Put plainly: Dose response of B-I09 in wild-type and CARM1 knockout A1847 cells. To be noted: wild-type vs CARM1 knockout A1847 cells (FIG. 3B). It counts as cell-based.
A further assay relates to ARID1A-mutant OCCC PDX. Nature of the assay: ARID1A-mutant OCCC PDX mice treated with B-I09. The assay is classed as in vivo. To be noted: ARID1A-mutant OCCC PDX mice (FIG. 45).
Assay [3] deals with Arid1a flox/flox;(Gt)Rosa26Pik3ca*H1047R OCCC tumors. Put plainly: Genetic OCCC mouse model (conditional inactivation of Arid1a, activation of Pik3ca).
Another assay relates to ARID1A mutant tumor. Nature of the assay: ARID1A mutant tumor formation under B-I09. The assay is classed as in vivo. The conditions noted are these: FIG. 39, 40.
Assay [4] concerns hematological malignancies. To be noted: cited from earlier work.
The next assay relates to CARM1-high tumors. Nature of the assay: Orthotopic CARM1-high and CARM1-low PDX and A1847 xenograft mouse models. To be noted: CARM1-high vs CARM1-low PDX; wild-type vs CARM1 knockout A1847 xenograft. The assay is classed as in vivo, mice. From the text: (FIG. 18A) Hematoxylin and eosin (HE) staining, and immunohistochemical staining with anti-CARM1 antibody in CARM1-low and CARM1-high PDX. (FIG. 18B) Confirmation of CARM1 expression levels in CARM1-low and -high PDXs by western blotting. A1847 and OVCAR3 cell lysates were used as positive control for CARM1-high and CARM1-low expression, respectively. (FIGS. 18C-D) Schematic of experimental design for PDX mouse model was shown. Mice with indicated orthotopic CARM1-high and CARM1-low PDXs were randomized into two groups and treated with vehicle control or B-I09. Tumor weight was measured as a representation for tumor burden at the end of the treatment. (FIGS. 18E-F) Schematic of experimental design for orthotopic injection A1847 xenograft was shown. Mice with indicated orthotopic injection of wild-type or CARM1 knockout A1847 cells were randomized into two groups and treated with vehicle control or B-I09. Tumor weight was measured as a representation for tumor burden at the end of the treatment. (FIG. 18G) Kaplan-Meier survival curves for indicated xenograft groups. P value was calculated by log rank test. (FIG. 18H) Immunohistochemistry for apoptotic marker cleaved caspase 3 and proliferation marker Ki67, histological scores (H-score) were calculated for three separate fields from five tumors from five individual mice from each of the indicated groups.

The target in the next assay is EZH2 compared to EZH1 (Homo sapiens, UniProt Q15910). The conditions noted are these: cited from earlier work.
Another assay concerns RMG1 cells. Put plainly: Cisplatin and B-I09 combination in RMG1 wild-type and ARID1A knock-out cells. It counts as cell-based. The conditions noted are these: RMG1 wild-type vs RMG1 ARID1A knock-out cells (FIG. 11); preliminary. An excerpt: FIG. 11. […] IC50 of cisplatin in RMG1 wild-type compared to RMG1 ARID1A knock-out cells in combination with B-I09. Data from 3 replicates.
Resistance to cisplatin has been associated with an increase in ER stress-mediated cellular survival mechanisms in ovarian cancer (Avril et al., 2017; Lei et al., 2015; Xu et al., 2015). […] The inventors hypothesize that ER stress inhibition is synergistic with platinum-based chemotherapy in ARID1A-mutated OCCCs. To test this hypothesis, the inventors will treat ARID1A wild-type, ARID1A CRISPR-Cas9 knock-out, and ARID/A-mutant or wild-type OCCC cells with increasing concentrations of cisplatin or carboplatin. ER stress response induction will be analyzed by western blot and RT-qPCR analyzing the expression of ER stress response proteins such as IRE-1, XBP-1, PERK, ATF6 and BiP. They expect that platinum-based therapy-induces enhanced ER stress responses in ARID1A mutant/knock-out cells. ER stress response induction may sensitize them to treatment combination of platinum-based therapies and B-I09. […] The inventors will expand this analysis into a panel of ARID1A wild-type (such as RMG1, OVCA429 and KK) and mutant (such as TOV21G, OVTOKO, and OVISE) OCCC cell lines to further establish the efficacy of combination treatment of platinum-based therapy and B-I09. […]

In assay [5] the test system is A1847 cells with or without CARM1 knockout. Nature of the assay: Oleic acid rescue of B-I09-treated cells. The assay is classed as cell-based. The conditions noted are these: cells treated with B-I09, rescued with BSA or oleic acid (FIG. 4C); preliminary.
Description: as §1

EZH2 compared to EZH1, sequence (Q15910 whole entry): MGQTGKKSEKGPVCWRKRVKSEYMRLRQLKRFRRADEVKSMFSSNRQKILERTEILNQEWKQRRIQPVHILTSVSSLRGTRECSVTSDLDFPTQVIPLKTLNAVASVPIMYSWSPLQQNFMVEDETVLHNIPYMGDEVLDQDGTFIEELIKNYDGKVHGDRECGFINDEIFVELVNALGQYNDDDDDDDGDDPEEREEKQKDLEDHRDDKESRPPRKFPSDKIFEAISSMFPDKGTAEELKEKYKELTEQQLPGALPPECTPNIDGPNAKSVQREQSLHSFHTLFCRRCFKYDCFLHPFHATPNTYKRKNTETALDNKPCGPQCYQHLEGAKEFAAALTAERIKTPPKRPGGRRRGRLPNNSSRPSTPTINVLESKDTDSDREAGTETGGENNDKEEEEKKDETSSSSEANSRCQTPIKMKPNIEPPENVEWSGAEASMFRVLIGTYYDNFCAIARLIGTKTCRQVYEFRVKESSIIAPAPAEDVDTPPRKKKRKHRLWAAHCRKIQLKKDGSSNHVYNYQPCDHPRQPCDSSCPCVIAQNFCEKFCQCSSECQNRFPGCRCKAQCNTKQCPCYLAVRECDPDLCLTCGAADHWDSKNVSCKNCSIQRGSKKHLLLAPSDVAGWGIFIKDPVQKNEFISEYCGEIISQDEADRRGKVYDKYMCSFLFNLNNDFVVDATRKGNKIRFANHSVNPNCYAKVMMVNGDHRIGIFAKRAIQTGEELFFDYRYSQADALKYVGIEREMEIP
EZH2 compared to EZH1, sequence (O75530 whole entry partner): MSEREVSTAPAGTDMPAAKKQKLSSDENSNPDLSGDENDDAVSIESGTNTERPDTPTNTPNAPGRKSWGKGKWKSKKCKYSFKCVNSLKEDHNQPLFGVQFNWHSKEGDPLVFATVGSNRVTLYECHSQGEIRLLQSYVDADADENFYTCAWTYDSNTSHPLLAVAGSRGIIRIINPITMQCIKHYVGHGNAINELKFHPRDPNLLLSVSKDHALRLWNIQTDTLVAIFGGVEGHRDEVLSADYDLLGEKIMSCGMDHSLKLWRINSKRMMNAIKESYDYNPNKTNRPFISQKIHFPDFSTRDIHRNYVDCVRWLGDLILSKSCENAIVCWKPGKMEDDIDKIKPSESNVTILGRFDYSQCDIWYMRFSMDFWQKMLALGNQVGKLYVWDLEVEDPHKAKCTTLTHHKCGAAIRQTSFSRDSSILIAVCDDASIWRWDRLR
EZH2 compared to EZH1, sequence (Q15022 whole entry partner): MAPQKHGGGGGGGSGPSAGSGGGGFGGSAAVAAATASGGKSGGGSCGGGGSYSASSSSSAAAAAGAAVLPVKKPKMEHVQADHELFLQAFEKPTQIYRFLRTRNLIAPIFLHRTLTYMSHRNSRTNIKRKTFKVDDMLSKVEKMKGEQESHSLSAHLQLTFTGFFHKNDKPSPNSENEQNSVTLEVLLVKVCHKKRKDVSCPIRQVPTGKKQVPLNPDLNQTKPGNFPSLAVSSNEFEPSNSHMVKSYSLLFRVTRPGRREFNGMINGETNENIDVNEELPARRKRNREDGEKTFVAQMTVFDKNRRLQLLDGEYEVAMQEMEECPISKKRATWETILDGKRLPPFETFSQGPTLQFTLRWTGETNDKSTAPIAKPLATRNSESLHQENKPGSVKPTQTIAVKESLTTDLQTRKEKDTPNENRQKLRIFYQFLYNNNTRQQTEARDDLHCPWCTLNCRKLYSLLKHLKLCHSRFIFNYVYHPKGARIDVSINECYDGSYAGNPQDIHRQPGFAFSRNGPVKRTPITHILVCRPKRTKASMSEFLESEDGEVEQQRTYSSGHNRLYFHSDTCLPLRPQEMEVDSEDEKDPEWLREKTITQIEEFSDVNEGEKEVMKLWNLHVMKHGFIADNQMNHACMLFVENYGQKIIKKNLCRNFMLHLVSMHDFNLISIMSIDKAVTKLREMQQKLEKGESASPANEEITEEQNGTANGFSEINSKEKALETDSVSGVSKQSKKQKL
EZH2 compared to EZH1, sequence (Q09028 whole entry partner): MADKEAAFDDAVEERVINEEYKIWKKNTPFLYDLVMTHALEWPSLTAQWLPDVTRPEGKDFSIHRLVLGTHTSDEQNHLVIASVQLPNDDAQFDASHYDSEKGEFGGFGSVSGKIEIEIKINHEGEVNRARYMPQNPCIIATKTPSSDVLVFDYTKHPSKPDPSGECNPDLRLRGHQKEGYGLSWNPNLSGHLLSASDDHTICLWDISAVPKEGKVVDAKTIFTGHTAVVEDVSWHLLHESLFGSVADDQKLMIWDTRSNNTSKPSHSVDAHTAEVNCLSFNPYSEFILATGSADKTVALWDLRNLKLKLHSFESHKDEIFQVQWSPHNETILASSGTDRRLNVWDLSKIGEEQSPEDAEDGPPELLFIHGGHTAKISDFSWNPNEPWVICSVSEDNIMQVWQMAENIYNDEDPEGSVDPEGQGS

On to `O=c1oc2c(C3OCCCO3)c(O)ccc2c2c1CNCC2` [B-I09], for which the “drug interaction on tumor weight (coefficient of drug interaction)” value with UPK10 cells is “synergizes with PD-1 immune therapy”. For the same compound, in assay [1], the “effect of CD8 depletion on B-I09 treatment” value is recorded as “CD8 depletion does not affect B-I09 treatment”. Besides, in the assay on XBP-1, the “activation of XBP-1 / expression of active XBP-1s” value was “inhibits the activation of XBP-1; also recorded: decreasing the expression of active XBP-1s”. The “induction of apoptosis (cleaved PARP, cleaved lamin A)” value in assay [2] is recorded as “specifically induces apoptosis in CARM1-high cells; also recorded: specifically induced apoptosis in wildtype CARM1-high cells; also recorded: selectively induced apoptosis in CARM1-high but not CARM1-low or CARM1 knockout HGSOC cells”. For the same compound, the “sensitivity to B-I09, dose response curve” value with A1847 cells is “wild-type cells are significantly more sensitive to B-I09 compared with knockout cells”. The tumor growth entry with ARID1A-mutant OCCC PDX was “suppresses tumor growth”. For the same compound, the “survival (Kaplan-Meier)” value in [3] (50 mg/Kg B-I09, tumor bearing mice) is given as “enhances mouse survival”. For the same compound, the “tumor growth / progression (tumor weight)” value in assay [3] (50 mg/Kg B-I09 for 3 weeks (5 days on/2 off)) is on record as “reduces OCCC tumor growth in vivo; also recorded: suppresses tumor progression”. Besides, in the assay with ARID1A mutant tumor, the “ARID1A mutant tumor formation” value is listed as “selectively suppresses ARID1A mutant tumor formation”. In addition, the “efficacy in hematological malignancies” value in assay [4] is “has been effective in treating hematological malignancies”. The “sensitivity of tumors (tumor weight, survival) to B-I09” value in the assay on CARM1-high tumors was “CARM1-high tumors are sensitive to IRE-1α-XBP-1 inhibition”.

For `Cc1cc(C)c(CNC(=O)c2cc(-c3ccc(CN4CCOCC4)cc3)cc3c2cnn3C2CCCC2)c(=O)[nH]1` [EPZ005687], at EZH2 compared to EZH1, the “selectivity for EZH2 over EZH1” value is recorded as 50 fold.

In the case of `N.N.[Cl][Pt][Cl]` [cisplatin], the “IC50 of cisplatin in combination with B-I09” value with RMG1 cells was “reduces the IC50 of cisplatin more effectively in RMG1 CRISPR/Cas9 KO cells compared to their wild-type parental control; also recorded: Loss of ARID1A promotes sensitivity to cisplatin and B-I09 combination”.

As to `CCCCCCCC/C=C\CCCCCCCC(=O)O` [oleic acid], the “rescue from B-I09 inhibition of XBP-1” value in assay [5] was “can rescue A1847 wild-type cells from the inhibition of XBP-1 but has no effect on CARM1 knockout cells”.
